Experimental data as given in patent US20130267484A1, “TREATMENT OF RHEUMATOID ARTHRITIS WITH MASITINIB” (AB SCIENCE, priority 2010, published 2013).
Several values for one entry are separate records, joined by “and”; a condition that tells them apart may be missing. Equal entries are not always repeated.

Tested on: DMARD-refractory active RA
Assay: Phase 2a trial of masitinib in DMARD-refractory active RA: efficacy (ACR, ACRn, CRP, DAS28)
Assay type: in vivo, Human
Design: ACRn Mean ± SD / ACRn Median: unit not given here
Text: The main exclusion criteria were patients with: inadequate bone marrow function, defined as an absolute neutrophil count ≦2.5×10^9/litre, and platelets ≦100×10^9/litre; active current infection, history of infection requiring hospitalisation, history of recurrent infections, or treatment with antibiotics within 2 weeks of screening. Treatment wash-out periods observed prior to entry to the study were: a) DMARD use within 4 weeks; b) five half-lives, or wash-out in accordance for a specific drug, whichever is longer; c) any live (attenuated) vaccines taken within 4 weeks; d) use of more than one NSAID or its dosage change within 4 weeks; e) prednisone or equivalent corticosteroid dosage >10 mg/day or any dosage change within 4 weeks; and f) prednisone or equivalent corticosteroid dosage >20 mg administered via intra-articular injection, bolus intramuscular or intravenous treatment within 4 weeks. Other exclusion criteria included any previous use of recombinant interleukin-1 receptor antagonist (IL1-Ra) and patients who were pregnant or nursing.
Efficacy data are presented using descriptive statistics, contrasting initial dosage groups or according to previous DMARD failure. For comparison of groups according to initial dosage on a continuous variable, Student test (with Satterwhaite correction for unequal variance) or Wilcoxon test were used when normality was not rejected or rejected, respectively (normality determined via the Shapiro-Wilk test). For the same comparison on a qualitative variable, Chi-square or Fisher Exact test (if the Chi-square hypotheses were not filled) were used. The rate of patients achieving the various ACR response variables after 12 weeks of treatment (remission rate) are presented in terms of percentage and number of patients. Patients were assigned to either 3 or 6 mg/kg/day treatment groups based upon a randomisation schedule generated for packaging and labelling by the Biostatistics Section of AB Science. Individual treatment doses to be administered were supplied in sealed envelopes to be opened by the investigator at time of inclusion. Patients received the treatment from the investigator on an open basis.
Due to the relatively high patient drop-out rate of this study, analysis was conducted on two different datasets: one with an imputation of missing values according to the last observation carried forward (LOCF) methodology and the other in the absence of data imputation, i.e. the observed cases (OC). Analysis for efficacy was performed on a modified Intention-To-Treat (ITT) population and Per Protocol (PP) population. […] The PP population was defined as a subgroup of the ITT population that in addition had presented no major protocol deviations and had completed at least 28 days of treatment exposure.

[1] = W 60, extension phase, ITT population, n = 8
[2] = W 72, extension phase, ITT population, n = 7
[3] = W 72, extension phase, ITT population, n = 9
[4] = W 84, extension phase, ITT population, n = 4
[5] = W 84, extension phase, ITT population, n = 8
[6] = initial dosage 3 mg/kg/day (n = 22), ITT population
[7] = initial dosage 3 mg/kg/day (n = 22), ITT population, listed as Masitinib
[8] = initial dosage 6 mg/kg/day (n = 18), ITT population
[9] = week 12, ITT LOCF, All patients (n = 34)
[10] = week 12, ITT LOCF, All patients (n = 39)
[11] = week 12, ITT LOCF, Resistance to MTX (n = 28)
[12] = week 12, ITT LOCF, Resistance to MTX (n = 32)
[13] = week 12, ITT LOCF, Resistance to anti-TNFα (n = 18)
[14] = week 12, ITT LOCF, Resistance to anti-TNFα (n = 19)
[15] = week 12, PP OC, All patients (n = 24)
[16] = week 12, PP OC, All patients (n = 27)
[17] = week 12, PP OC, Resistance to MTX (n = 20)
[18] = week 12, PP OC, Resistance to MTX (n = 23)
[19] = week 12, PP OC, Resistance to anti-TNFα (n = 13)
[20] = week 12, PP OC, Resistance to anti-TNFα (n = 14)

Cc1ccc(NC(=O)c2ccc(CN3CCN(C)CC3)cc2)cc1Nc1nc(-c2cccnc2)cs1 [masitinib, 4-(4-methylpiperazin-1-ylmethyl)-N-[4-methyl-3-(4-pyridin-3ylthiazol-2-ylamino)phenyl]benzamide]
ACRn Median [1]: 64.9
ACRn Min-Max [1]: 10.0-93.3
DAS28 <2.6, patients [2]: 1 (14%)
DAS28 Mean ± SD [2]: 3.5 ± 1.5
DAS28 Median [2]: 3.0
DAS28 Min-Max [2]: 1.6-6.1
DAS28 ≦3.2, patients [2]: 4 (57%)
ACR20, patients reaching level [3]: 6 (67%)
ACR50, patients reaching level [3]: 3 (33%)
ACR70, patients reaching level [3]: 2 (22%)
ACR90, patients reaching level [3]: 1 (11%)
ACRn Mean ± SD [3]: 35.6 ± 41.3
ACRn Median [3]: 39.7
ACRn Min-Max [3]: −27.8-97.4
CRP 0% < Improvement ≦25%, patients [3]: 1 (11%)
CRP 25% < Improvement ≦50%, patients [3]: 1 (11%)
CRP Deterioration, patients [3]: 1 (11%)
CRP Improvement >50%, patients [3]: 6 (68%)
CRP Stable, patients [3]: 0 (0%)
DAS28 <2.6, patients [4]: 2 (50%)
DAS28 Mean ± SD [4]: 3.1 ± 1.6
DAS28 Median [4]: 2.5
DAS28 Min-Max [4]: 1.9-5.5
DAS28 ≦3.2, patients [4]: 3 (75%)
ACR20, patients reaching level [5]: 7 (88%)
ACR50, patients reaching level [5]: 5 (63%)
ACR70, patients reaching level [5]: 2 (25%)
ACR90, patients reaching level [5]: 1 (13%)
ACRn Mean ± SD [5]: 50.9 ± 38.0
ACRn Median [5]: 55.0
ACRn Min-Max [5]: −17.6-98.8
CRP 0% < Improvement ≦25%, patients [5]: 1 (13%)
CRP 25% < Improvement ≦50%, patients [5]: 1 (13%)
CRP Deterioration, patients [5]: 1 (13%)
CRP Improvement >50%, patients [5]: 5 (63%)
CRP Stable, patients [5]: 0 (0%)
Share of patients achieving ACR20 who did so at the stated dosage at time of first response (dosage not given): approximately 65%
Share of patients achieving ACR50 who did so at the stated dosage at time of first response (dosage not given): ~73%
Patients achieving up to 90% improvement (ACR90) (extension phase, after 1 year of treatment (60 weeks)): two
Duration over which observed improvement is maintained (extension phase, preliminary): > 84 weeks
Time to first response ACR20, Mean ± SD [6]: 51.9 ± 24.5 days
Time to first response ACR20, Median [6]: 56 days
Time to first response ACR20, Min-Max [6]: 28.0 to 105.0 days
Time to first response ACR50, Mean ± SD [6]: 91.9 ± 59.5 days
Time to first response ACR50, Median [6]: 84 days
Time to first response ACR50, Min-Max [6]: 28.0 to 217.0 days
Time to first response ACR20, Median [7]: 56.0 days
Time to first response ACR50, Median [7]: 84.0 days
Time to first response ACR20, Mean ± SD [8]: 40.3 ± 19.0 days
Time to first response ACR20, Median [8]: 29 days
Time to first response ACR20, Min-Max [8]: 28.0 to 86.0 days
Time to first response ACR50, Mean ± SD [8]: 86.8 ± 61.1 days
Time to first response ACR50, Median [8]: 72.5 days
Time to first response ACR50, Min-Max [8]: 28.0 to 203.0 days
Time to first response ACR20, Median (initial dosage 6 mg/kg/day (n = 18), ITT population, listed as Masitinib): 29.0 days
Patients achieving ACR20 and ΔCRP>50% response criteria (regardless of previous treatment (anti-TNFα or MTX failure)): approximately 50%
Patients with significant reduction (>50%) in CRP levels (week 12): approximately 50%
DAS28 Mean ± SD [9]: 4.8 ± 1.5
DAS28 Min-Max [9]: 0.5-7.0
ΔDAS28 (change in DAS28 score from baseline) [9]: 1.7
ACRn Mean ± SD [10]: 23.0 and 23.0 ± 37.5
ACRn Median [10]: 25.7
ACRn Min-Max [10]: −62.5-87.5
DAS28 Mean ± SD [11]: 4.8 ± 1.5
DAS28 Min-Max [11]: 0.5-7.0
ΔDAS28 (change in DAS28 score from baseline) [11]: 1.8
ACRn Mean ± SD [12]: 24.1 ± 38.8
ACRn Median [12]: 32.7
ACRn Min-Max [12]: −62.5-87.5
DAS28 Mean ± SD [13]: 5.2 ± 1.1
DAS28 Min-Max [13]: 3.3-7.0
ΔDAS28 (change in DAS28 score from baseline) [13]: 1.7
ACRn Mean ± SD [14]: 18.7 ± 36.8
ACRn Median [14]: 20.6
ACRn Min-Max [14]: −62.5-72.2
DAS28 Mean ± SD [15]: 4.6 ± 1.3
DAS28 Min-Max [15]: 0.5-7.0
ΔDAS28 (change in DAS28 score from baseline) [15]: 2.0
ACRn Mean ± SD [16]: 31.6
ACRn Median [16]: 42.9
ACRn Min-Max [16]: −40.0-87.5
DAS28 Mean ± SD [17]: 4.6 ± 1.4
DAS28 Min-Max [17]: 0.5-7.0
ΔDAS28 (change in DAS28 score from baseline) [17]: 2.1
ACRn Mean ± SD [18]: 36.6 ± 31.6
ACRn Median [18]: 46.9
ACRn Min-Max [18]: −40.0-87.5
DAS28 Mean ± SD [19]: 5.1 ± 1.2
DAS28 Min-Max [19]: 3.3-7.0
ΔDAS28 (change in DAS28 score from baseline) [19]: 1.8
ACRn Mean ± SD [20]: 28.1 ± 32.1
ACRn Median [20]: 44.3
ACRn Min-Max [20]: 40.0-72.2
